Article PMC7394103 (Frontiers in Pharmacology, 2020)

Assays:
MMP-3 secretion by FLS = test: IL-1β-induced MMP-3 secretion by FLS (ELISA); assay type: cell-based; conditions: Homo sapiens; 30 min compound, then 5 ng/ml IL-1β, 24 h
Excerpt: (§1) This study was approved by the Institutional Review Board of University of California, San Diego School of Medicine (La Jolla, CA, USA). Informed consent was obtained from all participants. Anonymous synovial tissue samples were obtained from six patients with RA at the time of total joint replacement (5 females, 1 male; age range, 44–72 years), as previously described ([Alvaro-Gracia et al., 1990]). The diagnosis of RA conformed to American College of Rheumatology 1987 revised criteria ([Arnett et al., 1988]). The synovium was minced and incubated with collagenase type VIII (0.5 mg/ml) (Sigma-Aldrich) in serum-free RPMI-1640 (Life Technologies, Grand Island, NY, USA) for 2 h at 37°C, filtered, extensively washed, and cultured in DMEM (Life Technologies) supplemented with 10% FBS (Gemini Bio Products, Calabasas, CA, USA), penicillin, streptomycin, gentamicin, and glutamine in a humidified 5% CO2 atmosphere. […]
(§2) FLS, HUVEC, SW982, and THP-1 cells were plated in 96 well plates (10^4 to 10^5 cells/well) for 48 h before treatment. […] The levels of MMP-1 and MMP-3 were determined in culture supernatants using commercially available ELISA kits according to the manufacturer’s instructions (R&D System, Minneapolis, MN, USA). IL-6 levels were also determined in the supernatants using a human IL-6 ELISA kit (BD Biosciences, San Jose, CA, USA).

[1] = tested on: IL-6 secretion by monocytic THP-1 cells; test: IL-1β-induced IL-6 secretion by THP-1 cells (ELISA); assay type: cell-based; conditions: Homo sapiens, 30 min compound, then 5 ng/ml IL-1β, 24 h
Method: (§3) FLS, HUVEC, SW982, and THP-1 cells were plated in 96 well plates (10^4 to 10^5 cells/well) for 48 h before treatment. At 2 days post-confluency, the cells were serum-starved and washed twice (with the exception of THP-1 cell, which were not washed) with FBS-free medium prior to the addition of test compounds. The cells were incubated in the presence or absence of test compounds or DMSO (vehicle control) for 30 min at 37°C in a 5% CO2 atmosphere, IL-1β (5 ng/ml) was added, and the cells were incubated for an additional 24 h. Culture supernatants were collected and stored at –80°C. The levels of MMP-1 and MMP-3 were determined in culture supernatants using commercially available ELISA kits according to the manufacturer’s instructions (R&D System, Minneapolis, MN, USA). IL-6 levels were also determined in the supernatants using a human IL-6 ELISA kit (BD Biosciences, San Jose, CA, USA).

JNK2 = tested on: JNK2; design: method as in Schepetkin et al., 2019; conditions: kinase profiling; ref Schepetkin et al., 2019; cited from earlier work
FLS = test: Cytotoxicity assay (CellTiter-Glo), FLS; assay type: cell-based, human; conditions: during the 90-min period of the c-Jun assay
Excerpt: (§4) This study was approved by the Institutional Review Board of University of California, San Diego School of Medicine (La Jolla, CA, USA). Informed consent was obtained from all participants. Anonymous synovial tissue samples were obtained from six patients with RA at the time of total joint replacement (5 females, 1 male; age range, 44–72 years), as previously described ([Alvaro-Gracia et al., 1990]). The diagnosis of RA conformed to American College of Rheumatology 1987 revised criteria ([Arnett et al., 1988]). The synovium was minced and incubated with collagenase type VIII (0.5 mg/ml) (Sigma-Aldrich) in serum-free RPMI-1640 (Life Technologies, Grand Island, NY, USA) for 2 h at 37°C, filtered, extensively washed, and cultured in DMEM (Life Technologies) supplemented with 10% FBS (Gemini Bio Products, Calabasas, CA, USA), penicillin, streptomycin, gentamicin, and glutamine in a humidified 5% CO2 atmosphere. Cells were allowed to adhere overnight, nonadherent cells were removed, and adherent fibroblast-like synoviocytes (FLS) were split at 1:3 when 70%–80% confluent. FLS were used from passages 3 through 9, during which time they are a homogeneous population of cells (<1% CD11b positive, <1% phagocytic, and <1% FcγRII and FcγRIII receptor positive).
(§5) Cytotoxicity was analyzed using a CellTiter-Glo Luminescent Cell Viability Assay Kit (Promega), according to the manufacturer’s protocol. […] Following treatment, substrate was added to the cells, and the samples were analyzed with a Fluoroscan Ascent FL microplate reader.

[2] = Cytotoxicity assay (CellTiter-Glo), FLS; assay type: cell-based, human; conditions: both sexes, human; concentrations up to 50 µM; read-out: Cytotoxic effect FLS IC50
Excerpt: as §4, §5

MMP-1 secretion by FLS = test: IL-1β-induced MMP-1 secretion by FLS (ELISA); assay type: cell-based; conditions: Homo sapiens; 30 min compound, then 5 ng/ml IL-1β, 24 h
Excerpt: as §1, §2

IL-6 secretion by HUVEC = test: IL-1β-induced IL-6 secretion by HUVEC (ELISA); assay type: cell-based; conditions: Homo sapiens, 30 min compound, then 5 ng/ml IL-1β, 24 h
Method: as §3

[3] = Cytotoxicity assay (CellTiter-Glo), SW982; assay type: cell-based; conditions: human, SW982 cells; concentrations up to 50 µM; read-out: Cytotoxic effect SW982 IC50
Method: Cytotoxicity was analyzed using a CellTiter-Glo Luminescent Cell Viability Assay Kit (Promega), according to the manufacturer’s protocol. Briefly, cells were cultured at a density of 10^4 to 10^5 cells/well with different concentrations of test compounds (final concentration of DMSO was 1%) for the indicated periods of time (2, 12, or 24 h) at 37°C and 5% CO2. Following treatment, substrate was added to the cells, and the samples were analyzed with a Fluoroscan Ascent FL microplate reader.

[4] = tested on: MMP3 gene expression in FLS; test: MMP3 gene expression in IL-1β-stimulated FLS (qPCR); assay type: cell-based, human; conditions: 4, 10, 25 µM, 1 h before IL-1β (2 ng/ml) for 6 h, vs vehicle
Method: For MMP mRNA analysis, FLS were plated in six-well plates, cultured until 80% confluence, and subsequently serum starved (1% FBS/DMEM) for 24 h. […] The mRNA was isolated and reverse transcribed to obtain cDNA. Quantitative real-time polymerase chain reaction was performed using primer probe sets for MMP3 and glyceraldehyde 3-phosphate dehydrogenase (GAPDH) (Life Technologies). Threshold cycle values were obtained and normalized to GAPDH expression.

Row | SMILES | IC50 (MMP-3 secretion by FLS) | IC50 [1] | binding affinity for JNK2 (JNK2) | FLS viability (FLS) | IC50 [2] | IC50 (MMP-1 secretion by FLS) | IC50 (IL-6 secretion by HUVEC) | IC50 [3] | MMP3 mRNA levels [4]
1 | O=C1c2ccccc2-n2c1nc1ccccc1c2=O [TRYP, indolo[2,1-b]quinazolin-6,12-dione] | 12.7 ± 4.6 µM | 9.3 ± 2.7 µM | no binding affinity | neither TRYP nor TRYP-Ox affected FLS viability | 16.7 ± 1.6 µM | 1.2 ± 0.4 µM | 6.4 ± 2.7 µM | 19.1 ± 4.9 µM | dose-dependent reduction
2 | O=c1c2ccccc2nc2n1-c1ccccc1/C2=N/O [TRYP-Ox, tryptanthrin-6-oxime] | 3.8 ± 0.4 µM | 0.3 ± 0.12 µM | high binding affinity | neither TRYP nor TRYP-Ox affected FLS viability | > 50 µM | 0.7 ± 0.1 µM | 0.9 ± 0.3 µM | > 50 µM | dose-dependent reduction
